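1) Cells in 96-well plates. 2) Compound, 48 h, 5 concentrations. 3) Linear interpolation between surrounding doses. 4) Unreached endpoint = highest concentration. The concentration for full growth arrest is given as TGI.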
Experiments:
Assay in all cases: NCI-60 cell line screen, 48 h
HT29 colon = system: HT29 colon
SN12C renal = system: SN12C renal
OVCAR-8 ovarian = system: OVCAR-8 ovarian
NCI-H23 lung = system: NCI-H23 lung
SNB-78 CNS = system: SNB-78 CNS
UO-31 renal = system: UO-31 renal
NCI-H522 lung = system: NCI-H522 lung
OVCAR-3 ovarian = system: OVCAR-3 ovarian
SNB-19 CNS = system: SNB-19 CNS
XF 498 CNS = system: XF 498 CNS
NCI-H226 lung = system: NCI-H226 lung
K-562 leukemia = system: K-562 leukemia
DMS 114 small cell lung = system: DMS 114 small cell lung
CAKI-1 renal = system: CAKI-1 renal
M14 melanoma = system: M14 melanoma
CCRF-CEM leukemia = system: CCRF-CEM leukemia
TK-10 renal = system: TK-10 renal
KM20L2 colon = system: KM20L2 colon
MOLT-4 leukemia = system: MOLT-4 leukemia
RPMI-8226 leukemia = system: RPMI-8226 leukemia
COLO 205 colon = system: COLO 205 colon
ACHN renal = system: ACHN renal
HCT-116 colon = system: HCT-116 colon
HOP-18 NSCLC = system: HOP-18 NSCLC
SF-295 CNS = system: SF-295 CNS
SF-539 CNS = system: SF-539 CNS
HOP-62 NSCLC = system: HOP-62 NSCLC
HCT-15 colon = system: HCT-15 colon
DLD-1 colon = system: DLD-1 colon
U251 CNS = system: U251 CNS
LXFL 529 NSCLC = system: LXFL 529 NSCLC
NCI-H460 lung = system: NCI-H460 lung
SK-MEL-2 melanoma = system: SK-MEL-2 melanoma
SW-620 colon = system: SW-620 colon
OVCAR-5 ovarian = system: OVCAR-5 ovarian
A549 NSCLC = system: A549 NSCLC
786-0 renal = system: 786-0 renal
UACC-62 melanoma = system: UACC-62 melanoma
IGROV1 ovarian = system: IGROV1 ovarian
SNB-75 CNS = system: SNB-75 CNS
SK-MEL-5 melanoma = system: SK-MEL-5 melanoma
DMS 273 small cell lung = system: DMS 273 small cell lung
OVCAR-4 ovarian = system: OVCAR-4 ovarian
UACC-257 melanoma = system: UACC-257 melanoma
MALME-3M melanoma = system: MALME-3M melanoma
KM12 colon = system: KM12 colon
SK-MEL-28 melanoma = system: SK-MEL-28 melanoma
SF-268 CNS = system: SF-268 CNS
HOP-92 NSCLC = system: HOP-92 NSCLC
A498 renal = system: A498 renal
SR leukemia = system: SR leukemia
SK-OV-3 ovarian = system: SK-OV-3 ovarian
M19-MEL melanoma = system: M19-MEL melanoma
HL-60(TB) leukemia = system: HL-60(TB) leukemia
HCC-2998 colon = system: HCC-2998 colon
LOX IMVI melanoma = system: LOX IMVI melanoma
EKVX NSCLC = system: EKVX NSCLC
RXF-631 renal = system: RXF-631 renal
RXF 393 renal = system: RXF 393 renal

## CN(C)CCCN1N=Nc2cccc3cccc1c23
HT29 colon
  TGI: > 100 µM
SN12C renal
  TGI: > 100 µM
OVCAR-8 ovarian
  TGI: > 100 µM
NCI-H23 lung
  TGI: > 100 µM
SNB-78 CNS
  TGI: > 100 µM
UO-31 renal
  TGI: > 100 µM
NCI-H522 lung
  TGI: > 100 µM
OVCAR-3 ovarian
  TGI: > 100 µM
SNB-19 CNS
  TGI: > 100 µM
XF 498 CNS
  TGI: > 100 µM
NCI-H226 lung
  TGI: > 100 µM
K-562 leukemia
  TGI: > 65.1 µM
DMS 114 small cell lung
  TGI: > 57.9 µM
CAKI-1 renal
  TGI: > 100 µM
M14 melanoma
  TGI: > 63.6 µM
CCRF-CEM leukemia
  TGI: > 63.4 µM
TK-10 renal
  TGI: > 100 µM
KM20L2 colon
  TGI: > 100 µM
MOLT-4 leukemia
  TGI: > 77.3 µM
RPMI-8226 leukemia
  TGI: > 69.3 µM
COLO 205 colon
  TGI: > 70.2 µM
ACHN renal
  TGI: > 100 µM
HCT-116 colon
  TGI: > 64.6 µM
HOP-18 NSCLC
  TGI: > 100 µM
SF-295 CNS
  TGI: > 100 µM
SF-539 CNS
  TGI: > 100 µM
HOP-62 NSCLC
  TGI: > 100 µM
HCT-15 colon
  TGI: > 57.5 µM
DLD-1 colon
  TGI: > 100 µM
U251 CNS
  TGI: > 100 µM
LXFL 529 NSCLC
  TGI: > 87 µM
NCI-H460 lung
  TGI: > 89.1 µM
SK-MEL-2 melanoma
  TGI: > 100 µM
SW-620 colon
  TGI: > 54.4 µM
OVCAR-5 ovarian
  TGI: > 100 µM
A549 NSCLC
  TGI: > 100 µM
786-0 renal
  TGI: 38.2 µM
UACC-62 melanoma
  TGI: > 100 µM
IGROV1 ovarian
  TGI: > 100 µM
SNB-75 CNS
  TGI: > 100 µM
SK-MEL-5 melanoma
  TGI: > 100 µM
DMS 273 small cell lung
  TGI: 39.8 µM
OVCAR-4 ovarian
  TGI: 58 µM
UACC-257 melanoma
  TGI: > 100 µM
MALME-3M melanoma
  TGI: > 100 µM
KM12 colon
  TGI: > 100 µM
SK-MEL-28 melanoma
  TGI: > 100 µM
SF-268 CNS
  TGI: > 100 µM
HOP-92 NSCLC
  TGI: > 100 µM
A498 renal
  TGI: > 100 µM
SR leukemia
  TGI: 51.4 µM
SK-OV-3 ovarian
  TGI: > 100 µM
M19-MEL melanoma
  TGI: > 95.3 µM
HL-60(TB) leukemia
  TGI: > 63.1 µM
HCC-2998 colon
  TGI: > 100 µM
LOX IMVI melanoma
  TGI: > 100 µM
EKVX NSCLC
  TGI: > 100 µM
RXF-631 renal
  TGI: > 100 µM

## COC(=O)/C(=N\NC(N)=O)C(C(=O)C(=O)Nc1ccccc1C(=O)OC)c1nc2ccc(C(=O)c3ccccc3)cc2[nH]c1=O (stereo unspecified)
HT29 colon
  TGI: > 100 µM
SN12C renal
  TGI: > 100 µM
OVCAR-8 ovarian
  TGI: > 100 µM
NCI-H23 lung
  TGI: > 100 µM
SNB-78 CNS
  TGI: > 100 µM
UO-31 renal
  TGI: > 100 µM
NCI-H522 lung
  TGI: > 100 µM
OVCAR-3 ovarian
  TGI: > 100 µM
SNB-19 CNS
  TGI: > 100 µM
XF 498 CNS
  TGI: > 100 µM
NCI-H226 lung
  TGI: > 100 µM
K-562 leukemia
  TGI: > 100 µM
DMS 114 small cell lung
  TGI: > 100 µM
CAKI-1 renal
  TGI: > 100 µM
M14 melanoma
  TGI: > 100 µM
CCRF-CEM leukemia
  TGI: > 100 µM
TK-10 renal
  TGI: > 100 µM
KM20L2 colon
  TGI: > 100 µM
MOLT-4 leukemia
  TGI: > 100 µM
RPMI-8226 leukemia
  TGI: > 100 µM
ACHN renal
  TGI: > 100 µM
HCT-116 colon
  TGI: > 100 µM
HOP-18 NSCLC
  TGI: > 100 µM
SF-295 CNS
  TGI: > 100 µM
SF-539 CNS
  TGI: > 100 µM
HOP-62 NSCLC
  TGI: > 100 µM
HCT-15 colon
  TGI: > 100 µM
DLD-1 colon
  TGI: > 100 µM
U251 CNS
  TGI: > 100 µM
LXFL 529 NSCLC
  TGI: > 100 µM
NCI-H460 lung
  TGI: > 100 µM
SK-MEL-2 melanoma
  TGI: > 100 µM
SW-620 colon
  TGI: > 100 µM
OVCAR-5 ovarian
  TGI: > 100 µM
A549 NSCLC
  TGI: > 100 µM
786-0 renal
  TGI: > 100 µM
UACC-62 melanoma
  TGI: > 100 µM
IGROV1 ovarian
  TGI: > 100 µM
SNB-75 CNS
  TGI: > 100 µM
SK-MEL-5 melanoma
  TGI: > 100 µM
DMS 273 small cell lung
  TGI: > 100 µM
OVCAR-4 ovarian
  TGI: > 100 µM
UACC-257 melanoma
  TGI: > 100 µM
MALME-3M melanoma
  TGI: > 100 µM
KM12 colon
  TGI: > 100 µM
SK-MEL-28 melanoma
  TGI: > 100 µM
SF-268 CNS
  TGI: > 100 µM
HOP-92 NSCLC
  TGI: > 100 µM
A498 renal
  TGI: > 100 µM
SR leukemia
  TGI: > 100 µM
SK-OV-3 ovarian
  TGI: > 100 µM
M19-MEL melanoma
  TGI: > 100 µM
HL-60(TB) leukemia
  TGI: > 100 µM
HCC-2998 colon
  TGI: > 100 µM
LOX IMVI melanoma
  TGI: > 100 µM
EKVX NSCLC
  TGI: > 100 µM
RXF-631 renal
  TGI: > 100 µM

## Cc1nc2c(o1)C(=Nc1ccccc1)c1ccccc1C2=Nc1ccccc1
HT29 colon
  TGI: > 100 µM
SN12C renal
  TGI: > 100 µM
OVCAR-8 ovarian
  TGI: > 100 µM
NCI-H23 lung
  TGI: > 100 µM
SNB-78 CNS
  TGI: > 100 µM
UO-31 renal
  TGI: > 100 µM
NCI-H522 lung
  TGI: > 100 µM
OVCAR-3 ovarian
  TGI: > 100 µM
SNB-19 CNS
  TGI: > 100 µM
XF 498 CNS
  TGI: > 100 µM
K-562 leukemia
  TGI: > 100 µM
DMS 114 small cell lung
  TGI: > 100 µM
CAKI-1 renal
  TGI: > 100 µM
M14 melanoma
  TGI: > 100 µM
CCRF-CEM leukemia
  TGI: > 100 µM
TK-10 renal
  TGI: > 100 µM
KM20L2 colon
  TGI: > 100 µM
MOLT-4 leukemia
  TGI: > 100 µM
RPMI-8226 leukemia
  TGI: > 100 µM
COLO 205 colon
  TGI: > 100 µM
ACHN renal
  TGI: > 100 µM
HCT-116 colon
  TGI: > 100 µM
HOP-18 NSCLC
  TGI: > 100 µM
SF-295 CNS
  TGI: > 100 µM
RXF 393 renal
  TGI: > 100 µM
SF-539 CNS
  TGI: > 100 µM
HOP-62 NSCLC
  TGI: > 100 µM
HCT-15 colon
  TGI: 32 µM
DLD-1 colon
  TGI: > 100 µM
U251 CNS
  TGI: > 100 µM
LXFL 529 NSCLC
  TGI: > 100 µM
NCI-H460 lung
  TGI: > 100 µM
SK-MEL-2 melanoma
  TGI: > 100 µM
SW-620 colon
  TGI: 41.3 µM
OVCAR-5 ovarian
  TGI: > 100 µM
A549 NSCLC
  TGI: > 100 µM
786-0 renal
  TGI: > 100 µM
UACC-62 melanoma
  TGI: > 100 µM
IGROV1 ovarian
  TGI: > 100 µM
SNB-75 CNS
  TGI: > 100 µM
SK-MEL-5 melanoma
  TGI: > 100 µM
DMS 273 small cell lung
  TGI: > 100 µM
OVCAR-4 ovarian
  TGI: > 100 µM
UACC-257 melanoma
  TGI: > 100 µM
MALME-3M melanoma
  TGI: > 100 µM
KM12 colon
  TGI: > 100 µM
SF-268 CNS
  TGI: > 100 µM
HOP-92 NSCLC
  TGI: > 100 µM
A498 renal
  TGI: > 100 µM
SK-OV-3 ovarian
  TGI: > 100 µM
M19-MEL melanoma
  TGI: > 100 µM
HL-60(TB) leukemia
  TGI: > 100 µM
HCC-2998 colon
  TGI: > 100 µM
LOX IMVI melanoma
  TGI: > 100 µM
EKVX NSCLC
  TGI: > 100 µM
RXF-631 renal
  TGI: > 100 µM

— PubChem BioAssay (NCI)
